According to patent publication US20220040150A1, “I[…] ADMI[…] FOR DMT-ASSISTED PSYCHOTHERAPY” (Universitatsspital Basel, priority 2020, published 2022):
Entries after “also recorded” stand apart in the source; their conditions may differ.

Key:
[1] = system: healthy subjects; experiment: Example 1 clinical study: adverse effects and list of complaints
Experimental: Identical placebo (saline) was prepared.
Adverse effects and list of complaints: The list of complaints (LC) consists of 66 items offering a global score measuring physical and general discomfort (Zerssen, 1976). The LC list is administered before and at the end of the session with reference to complaints throughout the entire session.

[2] = system: experienced hallucinogen-using volunteers; settings: 0.3 mg/kg iv at half-hour intervals 4 times in a morning; cited from earlier work
[3] = molecular target: T1, 5-HT1A receptor (Homo sapiens, UniProt P08908); settings: sub-hallucinogenic dose of 0.1 mg/kg DMT, twelve subjects; cited from earlier work
T1 construct: host or cells: human volunteers (in vivo)
T1 sequence (P08908 1-422): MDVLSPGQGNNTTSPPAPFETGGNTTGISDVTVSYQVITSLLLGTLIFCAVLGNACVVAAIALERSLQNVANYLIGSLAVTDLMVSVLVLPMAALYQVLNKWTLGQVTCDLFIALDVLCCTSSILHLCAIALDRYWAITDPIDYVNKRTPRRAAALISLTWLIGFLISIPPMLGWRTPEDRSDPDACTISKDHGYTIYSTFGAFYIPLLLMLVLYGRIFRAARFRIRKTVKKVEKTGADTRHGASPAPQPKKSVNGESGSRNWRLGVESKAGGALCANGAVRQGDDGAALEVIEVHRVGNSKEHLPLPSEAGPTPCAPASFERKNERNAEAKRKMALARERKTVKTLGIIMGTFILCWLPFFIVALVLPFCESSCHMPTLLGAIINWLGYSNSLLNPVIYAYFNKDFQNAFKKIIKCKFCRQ

[4] = molecular target: T2, 5-HT1 receptor (Homo sapiens, UniProt P08908); settings: in contrast to psilocybin; cited from earlier work
T2 sequence (P08908 1-422): T1 sequence (P08908 1-422)

[5] = system: healthy subjects with previous hallucinogen experience; settings: cited from earlier work
[6] = molecular target: T3, monoamine oxidase (MAO) A (Homo sapiens, UniProt P21397); settings: cited from earlier work
T3 sequence (P21397 1-527): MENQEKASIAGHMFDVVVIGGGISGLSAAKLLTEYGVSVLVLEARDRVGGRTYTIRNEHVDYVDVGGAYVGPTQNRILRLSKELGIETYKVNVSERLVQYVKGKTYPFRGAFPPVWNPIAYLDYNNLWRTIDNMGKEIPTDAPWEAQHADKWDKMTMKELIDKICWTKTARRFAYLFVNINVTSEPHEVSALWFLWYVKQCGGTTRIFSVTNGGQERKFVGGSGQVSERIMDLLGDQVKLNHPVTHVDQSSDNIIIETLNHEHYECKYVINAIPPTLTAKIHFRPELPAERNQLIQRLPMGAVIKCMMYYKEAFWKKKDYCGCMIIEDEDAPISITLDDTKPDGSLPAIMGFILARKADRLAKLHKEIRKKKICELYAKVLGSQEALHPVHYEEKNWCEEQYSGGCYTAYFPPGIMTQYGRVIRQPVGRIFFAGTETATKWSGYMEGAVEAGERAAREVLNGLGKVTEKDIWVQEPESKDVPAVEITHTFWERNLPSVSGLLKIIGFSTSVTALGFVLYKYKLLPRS

[7] = system: healthy subjects; experiment: Example 1 clinical study: 5D-ASC scale
[8] = system: healthy subjects; experiment: Example 1 clinical study: blood pressure and heart rate; settings: perfusion with or without bolus

CN(C)CCc1c[nH]c2ccccc12 [DMT, N,N-dimethyltryptamine]
relevant adverse effects ([1]; Example 1): did not result in relevant adverse effects | safety of administration ([1]; Example 1): safe | highest dose still well-tolerated by the study population ([1]; perfusion rate, Example 1): 1 mg of DMT/min | reported complaints ([1]; perfusion without bolus, two subjects): lack of appetite; also recorded: tiredness, palpitations, cold feet, and dry mouth | Tolerance to the subjective effects of DMT [2]: did not occur | enhancement of DMT effects by pindolol pre-treatment [3]: two to three times | affinity to the 5-HT1 receptor [4]: greater affinity | Average heart rate ([5]; at 2 minutes): 100 beats/min | mean arterial blood pressure ([5]; at 2 minutes): 108 mm Hg | blood pressure, heart rate, pupil size, body core temperature, blood levels of ACTH, cortisol, PRL, β-endorphin and growth hormone ([5]; iv bolus): increased | metabolism by monoamine oxidase (MAO) A [6]: rapidly metabolized | Anxiety (5D-ASC) ([7]; bolus and perfusion): almost absent | 5D-ASC scores ([7]; bolus and perfusion compared with perfusion alone, mean in three subjects): more pronouncedly increased 5D-ASC scores | 5D-ASC ratings ([7]; perfusion with placebo bolus): increased ratings of Oceanic Boundlessness and lower ratings in Anxious Ego-Dissolution and Visionary Restructuralization | effect on blood pressure and heart rate [8]: only moderately and transiently increased blood pressure
